According to patent US11759455B2, “Substituted 1H-imidazo[4,5-b]pyridin-2(3H)-ones and their use as GLUN2B receptor modulators” (JANSSEN PHARMACEUTICA NV, priority 2016, dated 2023):
Where two headings read alike, the source gives them in different places.

Biological target: T1, human GluN1/GluN2B NMDA receptors (Homo sapiens, UniProt Q13224)
T1 construct: expressed in transfected cells
Experiment: Cell-based calcium flux (FLIPR) assay on cloned human NR1/NR2B ion channels expressed in mammalian cells (standard and HTS buffer variants);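 also: stable Tet-On inducible cell line, Ca2+ influx triggered by glutamate at about EC40 plus 10 µM glycine, fluorescent dye read-out over 5 min, normalized to control wells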

[1] = standard assay buffer (0.5 mM MgCl2 dye loading; 137 mM NaCl, 4 mM KCl assay buffer), human GluN1/GluN2B cells, read-out: NR2B IC50 (μM) standard assay
[2] = standard assay buffer (0.5 mM MgCl2 in dye loading buffer; 137 mM NaCl, 4 mM KCl in assay buffer), human GluN1/GluN2B, read-out: NR2B IC50 (μM) standard assay

T1 sequence (Q13224 27-1484, other chains not shown): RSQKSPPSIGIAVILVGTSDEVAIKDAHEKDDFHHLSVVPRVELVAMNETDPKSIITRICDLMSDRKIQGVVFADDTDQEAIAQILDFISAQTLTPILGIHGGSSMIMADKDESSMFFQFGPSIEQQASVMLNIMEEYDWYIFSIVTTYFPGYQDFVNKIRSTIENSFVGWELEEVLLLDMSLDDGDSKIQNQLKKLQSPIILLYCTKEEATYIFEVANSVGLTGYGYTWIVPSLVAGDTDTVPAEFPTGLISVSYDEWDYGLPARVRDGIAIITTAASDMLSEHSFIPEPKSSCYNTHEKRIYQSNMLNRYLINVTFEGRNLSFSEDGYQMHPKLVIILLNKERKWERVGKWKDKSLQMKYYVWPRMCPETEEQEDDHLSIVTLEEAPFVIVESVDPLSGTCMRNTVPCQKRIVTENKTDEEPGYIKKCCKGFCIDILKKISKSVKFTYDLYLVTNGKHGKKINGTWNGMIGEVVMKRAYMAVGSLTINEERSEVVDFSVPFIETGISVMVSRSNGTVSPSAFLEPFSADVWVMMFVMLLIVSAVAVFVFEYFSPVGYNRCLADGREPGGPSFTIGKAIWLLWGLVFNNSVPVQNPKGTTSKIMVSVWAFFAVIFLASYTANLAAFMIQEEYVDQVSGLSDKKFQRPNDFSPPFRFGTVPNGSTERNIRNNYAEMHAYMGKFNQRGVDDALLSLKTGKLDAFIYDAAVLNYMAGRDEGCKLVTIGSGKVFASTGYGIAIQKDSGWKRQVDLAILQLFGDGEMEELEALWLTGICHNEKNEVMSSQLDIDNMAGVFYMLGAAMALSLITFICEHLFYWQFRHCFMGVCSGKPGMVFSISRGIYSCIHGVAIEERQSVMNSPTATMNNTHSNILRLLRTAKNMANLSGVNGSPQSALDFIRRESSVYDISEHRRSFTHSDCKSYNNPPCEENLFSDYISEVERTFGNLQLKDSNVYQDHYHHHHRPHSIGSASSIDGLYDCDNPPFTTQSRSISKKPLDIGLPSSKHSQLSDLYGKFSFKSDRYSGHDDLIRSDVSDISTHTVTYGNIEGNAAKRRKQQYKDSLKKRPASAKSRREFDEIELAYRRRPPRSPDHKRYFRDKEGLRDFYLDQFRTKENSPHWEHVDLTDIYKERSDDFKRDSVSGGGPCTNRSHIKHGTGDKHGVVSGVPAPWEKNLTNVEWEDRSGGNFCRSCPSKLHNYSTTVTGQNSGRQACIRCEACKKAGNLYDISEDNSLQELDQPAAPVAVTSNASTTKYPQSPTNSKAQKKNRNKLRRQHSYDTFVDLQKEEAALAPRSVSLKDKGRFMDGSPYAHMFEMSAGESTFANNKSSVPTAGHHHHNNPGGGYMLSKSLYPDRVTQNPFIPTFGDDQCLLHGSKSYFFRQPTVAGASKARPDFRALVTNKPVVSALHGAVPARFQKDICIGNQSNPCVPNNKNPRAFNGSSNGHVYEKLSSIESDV

SMILES: Cn1c(=O)n(CC(=O)N2CCC2)c2cc(-c3ccc(CO)s3)cnc21 [Example 89, 1-[2-(Azetidin-1-yl)-2-oxo-ethyl]-6-[5-(hydroxymethyl)-2-thienyl]-3-methyl-imidazo[4,5-b]pyridin-2-one]
- IC50 [1]: 0.549 µM

SMILES: N#Cc1ccccc1Cn1c(=O)[nH]c2ncc(-c3cccc(C(F)(F)F)c3)cc21 [Example 213, 2-[[2-Oxo-6-[3-(trifluoromethyl)phenyl]-3H-imidazo[4,5-b]pyridin-1-yl]methyl]benzonitrile]
- IC50 [1]: 0.375 µM

SMILES: Cn1ccc(Cn2c(=O)[nH]c3ncc(-c4ccc(F)c(Cl)c4)cc32)n1 [Example 130, 6-(3-Chloro-4-fluoro-phenyl)-1-[(1-methylpyrazol-3-yl)methyl]-3H-imidazo[4,5-b]pyridin-2-one]
- IC50 [1]: 4.73 µM

SMILES: Cn1c(=O)n(Cc2cccnn2)c2cc(-c3cc(F)cc(C(F)(F)F)c3)cnc21 [Example 383, 6-[3-Fluoro-5-(trifluoromethyl)phenyl]-3-methyl-1-(pyridazin-3-ylmethyl)imidazo[4,5-b]pyridin-2-one]
- IC50 [2]: 0.041 µM

SMILES: O=c1[nH]c2ncc(-c3ccc(F)cc3)cc2n1Cc1cccnc1 [Example 295, 6-(4-Fluorophenyl)-1-(3-pyridylmethyl)-3H-imidazo[4,5-b]pyridin-2-one]
- IC50 [1]: 0.098 µM

SMILES: CCC(=O)Cn1c(=O)[nH]c2ncc(-c3ccc(F)c(C)c3)cc21 [Example 331, 6-(4-Fluoro-3-methyl-phenyl)-1-(2-oxobutyl)-3H-imidazo[4,5-b]pyridin-2-one]
- IC50 [2]: 0.012 µM

SMILES: Cn1c(=O)n(CCN2CCC2)c2cc(-c3cccc(C(F)(F)F)c3)cnc21 [Example 18, 1-[2-(Azetidin-1-yl)ethyl]-3-methyl-6-[3-(trifluoromethyl)phenyl]imidazo[4,5-b]pyridin-2-one]
- IC50 [1]: 0.7 µM

SMILES: Cn1c(=O)n(Cc2cccnn2)c2cc(-c3cccc(C(F)(F)F)c3)cnc21 [Example 378, 3-Methyl-1-(pyridazin-3-ylmethyl)-6-[3-(trifluoromethyl)phenyl]imidazo[4,5-b]pyridin-2-one]
- IC50 [2]: 0.031 µM

SMILES: Cn1c(=O)n(CC(=O)N2CC(F)(F)C2)c2cc(-c3ccc(F)c(C(F)F)c3)cnc21 [Example 586, 1-[2-(3,3-Difluoroazetidin-1-yl)-2-oxo-ethyl]-6-[3-(difluoromethyl)-4-fluoro-phenyl]-3-methyl-imidazo[4,5-b]pyridin-2-one]
- IC50 [2]: 0.051 µM

SMILES: O=c1[nH]c2ncc(-c3cccc(C(F)(F)F)c3)cc2n1Cc1ccc(C(F)(F)F)nc1 [Example 257, 6-[3-(Trifluoromethyl)phenyl]-1-[[6-(trifluoromethyl)-3-pyridyl]methyl]-3H-imidazo[4,5-b]pyridin-2-one]
- IC50 [1]: 1.46 µM

SMILES: Cn1c(=O)n(Cc2cnccn2)c2cc(-c3cccc(F)c3)cnc21 [Example 55, 6-(3-Fluorophenyl)-3-methyl-1-(pyrazin-2-ylmethyl)imidazo[4,5-b]pyridin-2-one]
- IC50 [1]: 3.03 µM

SMILES: O=c1[nH]c2ncc(-c3cc(F)cc(F)c3)cc2n1CCN1CCC1 [Example 159, 1-[2-(Azetidin-1-yl)ethyl]-6-(3,5-difluorophenyl)-3H-imidazo[4,5-b]pyridin-2-one]
- IC50 [1]: 0.211 µM

SMILES: Cn1c(=O)n(CC(=O)N2CC(F)(F)C2)c2cc(-c3ccc(F)c(F)c3)cnc21 [Example 416, 1-[2-(3,3-Difluoroazetidin-1-yl)-2-oxo-ethyl]-6-(3,4-difluorophenyl)-3-methyl-imidazo[4,5-b]pyridin-2-one]
- IC50 [2]: 0.01 µM

SMILES: O=C(Cn1c(=O)[nH]c2ncc(-c3ccc(F)c(Cl)c3)cc21)NC1CC1 [Example 448, 2-[6-(3-Chloro-4-fluoro-phenyl)-2-oxo-3H-imidazo[4,5-b]pyridin-1-yl]-N-cyclopropyl-acetamide]
- IC50 [2]: 0.008 µM

SMILES: CN(C)C(=O)Cn1c(=O)[nH]c2ncc(-c3ccc(C(F)(F)F)s3)cc21 [Example 26, N,N-Dimethyl-2-[2-oxo-6-(5-(trifluoromethyl)-2-thienyl]-3H-imidazo[4,5-b]pyridin-1-yl)acetamide]
- IC50 [1]: 0.012 µM

SMILES: Cc1nc(Cn2c(=O)[nH]c3ncc(-c4ccc(F)c(F)c4)cc32)no1 [Example 144, 6-(3,4-Difluorophenyl)-1-[(5-methyl-1,2,4-oxadiazol-3-yl)methyl]-3H-imidazo[4,5-b]pyridin-2-one]
- IC50 [1]: 0.107 µM

SMILES: Cn1c(=O)n(CC(=O)N2CC(F)C2)c2cc(-c3cnc(C(F)(F)F)s3)cnc21 [Example 116, 1-[2-(3-Fluoroazetidin-1-yl)-2-oxo-ethyl]-3-methyl-6-[2-(trifluoromethyl)thiazol-5-yl]imidazo[4,5-b]pyridin-2-one]
- IC50 [1]: 0.705 µM

SMILES: O=c1[nH]c2ncc(-c3cccc(C(F)(F)F)c3)cc2n1Cc1ncccn1 [Example 227, 1-(Pyrimidin-2-ylmethyl)-6-[3-(trifluoromethyl)phenyl]-3H-imidazo[4,5-b]pyridin-2-one]
- IC50 [1]: 0.096 µM

SMILES: Cn1c(=O)n(Cc2cccnn2)c2cc(-c3ccc(F)s3)cnc21 [Example 85, 6-(5-Fluoro-2-thienyl)-3-methyl-1-(pyridazin-3-ylmethyl)imidazo[4,5-b]pyridin-2-one]
- IC50 [1]: 0.157 µM

SMILES: Cc1c(F)ccc(-c2cnc3[nH]c(=O)n(Cc4cncc(F)c4)c3c2)c1F [Example 301, 6-(2,4-Difluoro-3-methyl-phenyl)-1-[(5-fluoro-3-pyridyl)methyl]-3H-imidazo[4,5-b]pyridin-2-one]
- IC50 [1]: 0.045 µM

SMILES: Cn1c(=O)n(Cc2cccnc2)c2cc(-c3cccc(Cl)c3F)cnc21 [Example 359, 6-(3-Chloro-2-fluoro-phenyl)-3-methyl-1-(3-pyridylmethyl)imidazo[4,5-b]pyridin-2-one]
- IC50 [2]: 0.096 µM

SMILES: COc1ccc(-c2cnc3[nH]c(=O)n(CC(=O)c4cccs4)c3c2)cc1F [Example 457, 6-(3-Fluoro-4-methoxy-phenyl)-1-[2-oxo-2-(2-thienyl)ethyl]-3H-imidazo[4,5-b]pyridin-2-one]
- IC50 [2]: 0.33 µM

SMILES: Cc1cncc(Cn2c(=O)[nH]c3ncc(-c4ccc(F)c(C)c4F)cc32)c1 [Example 270, 6-(2,4-Difluoro-3-methyl-phenyl)-1-[(5-methyl-3-pyridyl)methyl]-3H-imidazo[4,5-b]pyridin-2-one]
- IC50 [1]: 0.115 µM

SMILES: Cn1c(=O)n(CC(=O)N2CCC2)c2cc(-c3ccsc3C(F)(F)F)cnc21 [Example 95, 1-[2-(Azetidin-1-yl)-2-oxo-ethyl]-3-methyl-6-[2-(trifluoromethyl)-3-thienyl]imidazo[4,5-b]pyridin-2-one]
- IC50 [1]: 0.096 µM

SMILES: O=c1[nH]c2ncc(-c3cccc(C(F)(F)F)c3)cc2n1Cc1ccncn1 [Example 23, 1-(Pyrimidin-4-ylmethyl)-6-[3-(trifluoromethyl)phenyl]-3H-imidazo[4,5-b]pyridin-2-one]
- IC50 [1]: 0.22 µM

SMILES: O=c1[nH]c2ncc(-c3ccc(F)c(Cl)c3)cc2n1Cc1ccc(F)cc1 [Example 502, 6-(3-Chloro-4-fluoro-phenyl)-1-[(4-fluorophenyl)methyl]-3H-imidazo[4,5-b]pyridin-2-one]
- IC50 (HTS assay buffer (1.5 mM MgCl2 in dye loading buffer; 150 mM NaCl, 3 mM KCl in assay buffer), human GluN1/GluN2B, read-out: NR2B IC50 (μM) HTS assay): 4.86 µM

SMILES: Cc1c(F)ccc(-c2cnc3[nH]c(=O)n(CCN4CCC4)c3c2)c1C [Example 171, 1-[2-(Azetidin-1-yl)ethyl]-6-(4-fluoro-2,3-dimethyl-phenyl)-3H-imidazo[4,5-b]pyridin-2-one]
- IC50 [1]: 0.21 µM

SMILES: Cn1c(=O)n(Cc2cccnn2)c2cc(-c3cccc(C(F)F)c3)cnc21 [Example 377, 6-[3-(Difluoromethyl)phenyl]-3-methyl-1-(pyridazin-3-ylmethyl)imidazo[4,5-b]pyridin-2-one]
- IC50 [2]: 0.03 µM

SMILES: Cc1cccnc1Cn1c(=O)[nH]c2ncc(-c3ccc(F)c(C)c3F)cc21 [Example 317, 6-(2,4-Difluoro-3-methyl-phenyl)-1-[(3-methyl-2-pyridyl)methyl]-3H-imidazo[4,5-b]pyridin-2-one]
- IC50 [2]: 0.046 µM

SMILES: Cc1ccncc1Cn1c(=O)[nH]c2ncc(-c3cc(F)c(F)c(F)c3)cc21 [Example 312, 1-[(4-Methyl-3-pyridyl)methyl]-6-(3,4,5-trifluorophenyl)-3H-imidazo[4,5-b]pyridin-2-one]
- IC50 [1]: 0.002 µM

SMILES: O=C(Cn1c(=O)[nH]c2ncc(-c3cccc(C(F)(F)F)c3)cc21)c1cccs1 [Example 214, 1-[2-Oxo-2-(2-thienyl)ethyl]-6-[3-(trifluoromethyl)phenyl]-3H-imidazo[4,5-b]pyridin-2-one]
- IC50 [1]: > 10 µM

SMILES: Cc1cc(Cn2c(=O)[nH]c3ncc(-c4ccc(F)cc4)cc32)nn1C [Example 16, 1-[(1,5-Dimethylpyrazol-3-yl)methyl]-6-(4-fluorophenyl)-3H-imidazo[4,5-b]pyridin-2-one]
- IC50 [1]: 8.9 µM

SMILES: O=c1[nH]c2ncc(-c3cccc(C(F)(F)F)c3)cc2n1Cc1cncnc1 [Example 255, 1-(Pyrimidin-5-ylmethyl)-6-[3-(trifluoromethyl)phenyl]-3H-imidazo[4,5-b]pyridin-2-one]
- IC50 [1]: 0.043 µM

SMILES: CCOc1ccccc1-c1cnc2[nH]c(=O)n(CC(=O)c3cccs3)c2c1 [Example 458, 6-(2-Ethoxyphenyl)-1-[2-oxo-2-(2-thienyl)ethyl]-3H-imidazo[4,5-b]pyridin-2-one]
- IC50 [2]: 0.135 µM

SMILES: Cc1cc(Cn2c(=O)n(C)c3ncc(-c4ccc(F)c(C)c4F)cc32)no1 [Example 571, 6-(2,4-Difluoro-3-methyl-phenyl)-3-methyl-1-[(5-methylisoxazol-3-yl)methyl]imidazo[4,5-b]pyridin-2-one]
- IC50 [2]: 0.037 µM

SMILES: O=C(Cn1c(=O)[nH]c2ncc(-c3ccc(OCCF)c(C(F)(F)F)c3)cc21)N1CCC1 [Example 538, 1-[2-(Azetidin-1-yl)-2-oxo-ethyl]-6-[4-(2-fluoroethoxy)-3-(trifluoromethyl)phenyl]-3H-imidazo[4,5-b]pyridin-2-one]
- IC50 [2]: 0.24 µM

SMILES: Cn1c(=O)n(Cc2cccnn2)c2cc(-c3ccc(F)c(F)c3)cnc21 [Example 61, 6-(3,4-Difluorophenyl)-3-methyl-1-(pyridazin-3-ylmethyl)imidazo[4,5-b]pyridin-2-one]
- IC50 [1]: 0.223 µM
